Reference: ChEMBL document CHEMBL1201862, “PubChem BioAssay data set” (2004)
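Exposure lasted 48 hours, with cells grown in 96-well plates and compounds tested at five concentrations. GI50: concentration for 50% inhibition of growth.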 Calls of active or inactive are those of the source. No stated cut-off is given here; in the data, active = GI50 up to about 1.1 µM and inactive = higher.

Experiments:
Experiment in all cases: NCI-60 cell line screen, 48 h
786-0 = test system: 786-0
A549 = test system: A549
ACHN = test system: ACHN
CAKI-1 = test system: CAKI-1
CCRF-CEM = test system: CCRF-CEM
HCT-116 = test system: HCT-116
HL-60 = test system: HL-60
IGROV-1 = test system: IGROV-1
MDA-MB-231 = test system: MDA-MB-231
Malme-3M = test system: Malme-3M
NCI-H23 = test system: NCI-H23
NCI-H460 = test system: NCI-H460
OVCAR-8 = test system: OVCAR-8
PC-3 = test system: PC-3
SF-268 = test system: SF-268
SK-MEL-28 = test system: SK-MEL-28
SN12C = test system: SN12C
SNB-19 = test system: SNB-19
U-251 = test system: U-251
RXF 393 = test system: RXF 393

| SMILES | GI50 (786-0) | GI50 (A549) | GI50 (ACHN) | GI50 (CAKI-1) | GI50 (CCRF-CEM) | GI50 (HCT-116) | GI50 (HL-60) | GI50 (IGROV-1) | GI50 (MDA-MB-231) | GI50 (Malme-3M) | GI50 (NCI-H23) | GI50 (NCI-H460) | GI50 (OVCAR-8) | GI50 (PC-3) | GI50 (SF-268) | GI50 (SK-MEL-28) | GI50 (SN12C) | GI50 (SNB-19) | GI50 (U-251) | GI50 (RXF 393) |
| --- | --- | --- | --- | --- | --- | --- | --- | --- | --- | --- | --- | --- | --- | --- | --- | --- | --- | --- | --- | --- |
| NC(=O)Cc1nc2c(N)ncnc2n1C1OC(CO)C(O)C1O (stereo not drawn) | > 100 µM (inactive) | > 100 µM (inactive) | > 100 µM (inactive) | > 100 µM (inactive) | > 100 µM (inactive) | > 100 µM (inactive) | > 100 µM (inactive) | > 100 µM (inactive) | > 100 µM (inactive) | > 100 µM (inactive) | > 100 µM (inactive) | > 100 µM (inactive) | > 100 µM (inactive) | > 100 µM (inactive) | > 100 µM (inactive) | > 100 µM (inactive) | > 100 µM (inactive) | > 100 µM (inactive) | > 100 µM (inactive) | – |
| COCCOCCOCCOc1ccc(C(C#N)N(CCc2ccccc2)C(=O)c2cc(C(=O)N(CCc3ccccc3)C(C#N)c3ccc(OCCOCCOCCOC)cc3)cc(C(=O)N(CCc3ccccc3)C(C#N)c3ccc(OCCOCCOCCOC)cc3)c2)cc1 (stereo not drawn) | > 100 µM (inactive) | > 100 µM (inactive) | > 100 µM (inactive) | – | > 100 µM (inactive) | > 100 µM (inactive) | > 100 µM (inactive) | > 100 µM (inactive) | > 100 µM (inactive) | > 100 µM (inactive) | > 100 µM (inactive) | > 100 µM (inactive) | > 100 µM (inactive) | > 100 µM (inactive) | > 100 µM (inactive) | > 100 µM (inactive) | > 100 µM (inactive) | > 100 µM (inactive) | > 100 µM (inactive) | > 100 µM (inactive) |
| CC(C)C1=CC23CCC4C(C)(C(=O)O)CCCC4(C)C2CC1C1C(=O)N(CCCCCCN2C(=O)C4C5CC6C7(C)CCCC(C)(C(=O)O)C7CCC6(C=C5C(C)C)C4C2=O)C(=O)C13 (stereo not drawn) | > 10 µM (inactive) | 9.31 µM (inactive) | 10.9 µM (inactive) | – | 7.29 µM (inactive) | 8.51 µM (inactive) | 13.5 µM (inactive) | – | 15.3 µM (inactive) | 16.7 µM (inactive) | 2.74 µM (inactive) | – | 9.2 µM (inactive) | 5.9 µM (inactive) | 13.4 µM (inactive) | 11.3 µM (inactive) | 14 µM (inactive) | 10.5 µM (inactive) | 4.08 µM (inactive) | 14.2 µM (inactive) |
| CC(=O)/C(=C/N1CCNC1=S)C(=O)Nc1ccccc1C | > 100 µM (inactive) | > 100 µM (inactive) | > 100 µM (inactive) | > 100 µM (inactive) | > 100 µM (inactive) | > 100 µM (inactive) | – | > 100 µM (inactive) | > 100 µM (inactive) | – | > 100 µM (inactive) | > 100 µM (inactive) | > 100 µM (inactive) | > 100 µM (inactive) | > 100 µM (inactive) | > 100 µM (inactive) | > 100 µM (inactive) | > 100 µM (inactive) | > 100 µM (inactive) | > 100 µM (inactive) |
| CC1CCCN1CCCOC(=O)c1ccc(OC2C=CCCC2)cc1 (stereo not drawn) | 22.3 µM (inactive) | 42.1 µM (inactive) | 33.5 µM (inactive) | – | 30.3 µM (inactive) | 17.2 µM (inactive) | 17.4 µM (inactive) | 21.4 µM (inactive) | 18.1 µM (inactive) | 18.9 µM (inactive) | 25.4 µM (inactive) | 17.1 µM (inactive) | 47.6 µM (inactive) | 22.4 µM (inactive) | 37.8 µM (inactive) | 54.7 µM (inactive) | 39.4 µM (inactive) | 38.2 µM (inactive) | 37.6 µM (inactive) | 26.7 µM (inactive) |
| Clc1ccc(C(Cc2ccccc2)c2c(Cl)nc(N3CCNCC3)nc2Cl)cc1 (stereo not drawn) | 16.5 µM (inactive) | 16.1 µM (inactive) | 13.6 µM (inactive) | 5.13 µM (inactive) | 7.11 µM (inactive) | 8.38 µM (inactive) | 2.26 µM (inactive) | 11.9 µM (inactive) | 12.8 µM (inactive) | 14.3 µM (inactive) | 18.2 µM (inactive) | 12.1 µM (inactive) | 12.1 µM (inactive) | 14.3 µM (inactive) | – | 13.7 µM (inactive) | 15.2 µM (inactive) | 15.3 µM (inactive) | 14 µM (inactive) | – |
| COc1ccc(C(=O)Oc2c(C#N)sc3c2c(=O)n(-c2ccccc2)c(=S)n3-c2ccccc2)cc1 | 44.1 µM (inactive) | 30.1 µM (inactive) | 40.7 µM (inactive) | 22.3 µM (inactive) | 15.1 µM (inactive) | 18.1 µM (inactive) | 22.2 µM (inactive) | 19.6 µM (inactive) | 31.3 µM (inactive) | – | 20.3 µM (inactive) | 30.5 µM (inactive) | 24.7 µM (inactive) | 26.5 µM (inactive) | 34.2 µM (inactive) | 53.6 µM (inactive) | 23.5 µM (inactive) | 33.2 µM (inactive) | 25.8 µM (inactive) | 21.8 µM (inactive) |
| CO[C@@]12[C@H](COC(N)=O)C3=C(C(=O)C(C)=C(N)C3=O)N1C[C@@H]1N[C@@H]12 [MITOMYCIN] | – | – | – | – | 0.229 µM (active) | 0.701 µM (active) | 0.204 µM (active) | 2.9 µM (inactive) | 5.71 µM (inactive) | 0.796 µM (active) | – | – | 1.11 µM (active) | 2.24 µM (inactive) | – | 1.75 µM (inactive) | – | – | – | 2.01 µM (inactive) |
| Cc1ccc(SCC(CF)OC(C)n2cnc3c(O)nc(N)nc32)cc1 (stereo not drawn) | > 100 µM (inactive) | > 100 µM (inactive) | 55.6 µM (inactive) | > 100 µM (inactive) | > 100 µM (inactive) | > 100 µM (inactive) | 41.1 µM (inactive) | > 100 µM (inactive) | > 100 µM (inactive) | > 100 µM (inactive) | 75.5 µM (inactive) | > 100 µM (inactive) | > 100 µM (inactive) | > 100 µM (inactive) | > 100 µM (inactive) | > 100 µM (inactive) | > 100 µM (inactive) | > 100 µM (inactive) | > 100 µM (inactive) | – |
| C#CCCCC(=C)C[C@H](OCc1ccccc1)[C@H]1OC(=O)[C@@H]1C | – | 56.4 µM (inactive) | 72.6 µM (inactive) | 14.9 µM (inactive) | > 100 µM (inactive) | – | 66.1 µM (inactive) | – | 13.2 µM (inactive) | – | 36 µM (inactive) | > 100 µM (inactive) | 31.8 µM (inactive) | 48.2 µM (inactive) | > 100 µM (inactive) | > 100 µM (inactive) | > 100 µM (inactive) | > 100 µM (inactive) | > 100 µM (inactive) | > 100 µM (inactive) |
| COC(=O)CCc1ccc2c(c1)[C@H](C(=O)OC)[C@@H](c1ccc(O)cc1)O2 | > 10 µM (inactive) | > 100 µM (inactive) | > 100 µM (inactive) | > 100 µM (inactive) | 59.2 µM (inactive) | 21.5 µM (inactive) | 90.2 µM (inactive) | > 100 µM (inactive) | > 100 µM (inactive) | > 100 µM (inactive) | 71.6 µM (inactive) | 58.9 µM (inactive) | > 100 µM (inactive) | > 100 µM (inactive) | > 100 µM (inactive) | > 100 µM (inactive) | > 100 µM (inactive) | > 100 µM (inactive) | > 100 µM (inactive) | – |
